Source: paper PMC6730544 (ACS infectious diseases, 2019)

Tests used:
Format in all cases: biochemical
[1] = target: T1, LpxH (UDP-2,3-diacylglucosamine pyrophosphatase) (Escherichia coli, UniProt P43341); test: AaLpxE-coupled malachite green assay, residual activity at […]
[2] = target: T1, LpxH (UDP-2,3-diacylglucosamine pyrophosphatase); test: as above; remark: listed apart in the source
[3] = target: T1, LpxH (UDP-2,3-diacylglucosamine pyrophosphatase); test: AaLpxE-coupled malachite green assay, dose-response

T1 sequence (P43341 whole entry): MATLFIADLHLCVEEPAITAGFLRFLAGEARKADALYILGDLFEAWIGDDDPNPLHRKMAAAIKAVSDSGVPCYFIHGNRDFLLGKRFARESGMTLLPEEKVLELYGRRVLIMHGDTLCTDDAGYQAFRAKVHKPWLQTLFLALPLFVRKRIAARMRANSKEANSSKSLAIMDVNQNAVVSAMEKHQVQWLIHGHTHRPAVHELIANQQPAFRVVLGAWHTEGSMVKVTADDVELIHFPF

SMILES	1 μM compound / Percentage Activity [2]	10 μM compound / Percentage Activity [1]	also measured
CC(=O)Nc1ccc(S(=O)(=O)N2CCN(c3cccc(C(F)(F)F)c3)CC2)cc1 [compound 11, JH-LPH-15]	–	–	activity at 10 µM ([1]; read-out: 10 μM compound / Percentage Activity): 30 ± 11%
O=C(O)CCC(=O)N1CCc2cc(S(=O)(=O)N3CCN(c4cccc(Br)c4)CC3)ccc21 [22b, JH-LPH-08]	52 ± 11	–	–
CC(=O)N1CCc2cc(S(=O)(=O)N3CCN(c4cccc(-c5ccccc5)c4)CC3)ccc21 [3e, JH-LPH-25]	45 ± 10	–	–
CC(=O)N1CCc2cc(S(=O)(=O)N3CCN(c4cccc(Br)c4)CC3)ccc21 [3a, JH-LPH-06]	–	–	activity at 1 µM ([2]; read-out: 1 μM compound / Percentage Activity): 26 ± 8%
CCc1cccc(N2CCN(S(=O)(=O)c3ccc4c(c3)CCN4C(C)=O)CC2)c1 [3c, JH-LPH-24]	–	21 ± 2	–
COC(=O)CCC(=O)N1CCc2cc(S(=O)(=O)N3CCN(c4cccc(Br)c4)CC3)ccc21 [22a, JH-LPH-07]	53 ± 11	–	–
CC(=O)N1CCc2cc(S(=O)(=O)N3CCN(c4cccc(C(F)(F)F)c4)CC3)ccc21 [AZ1]	–	–	IC50 [3]: 147 ± 2 nM
CC(=O)N1CCc2cc(S(=O)(=O)N3CCN(c4cccc(C(C)C)c4)CC3)ccc21 [3d, JH-LPH-26]	–	29 ± 3	–
CC(=O)N1CCc2cc(S(=O)(=O)N3CCN(c4ccccc4)CC3)ccc21 [3b, JH-LPH-09]	–	32 ± 9	–
